Experimental data reported in patent publication US20180333427A1, “ANTI-FATIGUE COMPOSITION AND USE THEREOF” (CHENGZHI LIFE SCIENCE., LTD., priority 2013, published 2018).

Tested on: fatigue mice
Experiment: Weight loading swimming test of fatigue mice (Example 1)
Type: in vivo, ICR male mice
Details: for restoration of energy / strength in the state of fatigue: control group glucose 1 g/kg; for swimming time of fatigue mice: intragastric, daily dose in three times, swimming continued for three days, ribose 2.5 g/kg, caffeine 75 mg/kg, ribose 1250 mg/kg+caffeine 40 mg/kg
Experimental: The mice swim with the load twice every day, respectively in the morning and afternoon. The sum of the swimming times is recorded as the swimming time for one day. The average of the swimming times for the last two days is taken as a reference, and the mice are kept swimming every day until the day in which the swimming time is below 80% of the reference, and that is considered as fatigue. […] The respective agents are given by intragastric administration with a dosage of 0.2 ml/10 g, and the daily dose is given in three times. The mice are administrated with the agents 30 minutes before swimming in the morning and afternoon, respectively, and administrated again when the furs of the mice dry after swimming in the afternoon. The mice are continued to swim for three days under the prior condition as described in Section 1.2. After swimming, the respective agents are continually administered to the mice 3 times/day for 3 days, except those to be sampled immediately, then taken as materials. […] The swimming time for each group on day 0 is set for 1, the swimming time for each group on day 1, 2 and 3 is compared to that on day 0 respectively, and thereby the change rate (%) is obtained.

Row | Compound | anti-fatigue effect (fatigue mice, weight loading swimming, three days) | restoration of energy / strength in the state of fatigue (fatigue mice) | swimming time of fatigue mice
1 | Cn1c(=O)c2c(ncn2C)n(C)c1=O [caffeine] | does not produce sustained anti-fatigue effect | restore some strength in a short time but increase fatigue with the extension of time | shortened with the extension of training time
2 | O=C[C@H](O)[C@H](O)[C@H](O)CO [ribose, D-ribose] |  | restore energy more quickly than the control group | increased with the extension of training time
